Measurements: ChEMBL document CHEMBL1201862, “PubChem BioAssay data set” (2004)
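Compound exposure: 48 hours, 5 concentrations, 96-well plates. GI50 marks 50% less growth.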 The source made the active and inactive calls. Rule as the data show it: active = GI50 up to about 1.1 µM and inactive = higher.

Assays:
Test in all cases: NCI-60 cell line screen, 48 h
A498 = tested on: A498
ACHN = tested on: ACHN
CAKI-1 = tested on: CAKI-1
HCC 2998 = tested on: HCC 2998
HCT-15 = tested on: HCT-15
HT-29 = tested on: HT-29
NCI-H226 = tested on: NCI-H226
NCI-H23 = tested on: NCI-H23
NCI-H522 = tested on: NCI-H522
NCI/ADR-RES = tested on: NCI/ADR-RES
OVCAR-4 = tested on: OVCAR-4
OVCAR-5 = tested on: OVCAR-5
SF-268 = tested on: SF-268
SF-539 = tested on: SF-539
SK-MEL-28 = tested on: SK-MEL-28
SK-OV-3 = tested on: SK-OV-3
SNB-19 = tested on: SNB-19
SNB-75 = tested on: SNB-75
TK-10 = tested on: TK-10
UACC-62 = tested on: UACC-62

Structure (SMILES) | GI50 (A498) | GI50 (ACHN) | GI50 (CAKI-1) | GI50 (HCC 2998) | GI50 (HCT-15) | GI50 (HT-29) | GI50 (NCI-H226) | GI50 (NCI-H23) | GI50 (NCI-H522) | GI50 (NCI/ADR-RES) | GI50 (OVCAR-4) | GI50 (OVCAR-5) | GI50 (SF-268) | GI50 (SF-539) | GI50 (SK-MEL-28) | GI50 (SK-OV-3) | GI50 (SNB-19) | GI50 (SNB-75) | GI50 (TK-10) | GI50 (UACC-62)
CN(Cc1cccc2ccccc12)Cc1cccc2ccccc12 | 28.8 µM (inactive) | 37.6 µM (inactive) | 50.1 µM (inactive) | 22.7 µM (inactive) | 22.2 µM | 15.4 µM (inactive) | 30.9 µM (inactive) | 26.6 µM (inactive) | 19 µM (inactive) | 47.5 µM (inactive) | 36.1 µM (inactive) | 43 µM (inactive) | 41.6 µM (inactive) | 23.8 µM (inactive) | 35.2 µM (inactive) | 65.6 µM (inactive) | 52.7 µM (inactive) | 46.1 µM (inactive) | > 100 µM (inactive) | 67.5 µM (inactive)
N[C@@H]1c2c(Br)sc(Br)c2[C@H](O)[C@@H]1O | > 100 µM (inactive) | > 100 µM (inactive) | > 100 µM (inactive) | > 100 µM (inactive) | > 100 µM | > 100 µM (inactive) | > 100 µM (inactive) | > 100 µM (inactive) | > 100 µM (inactive) | > 100 µM (inactive) | > 100 µM (inactive) | > 100 µM (inactive) | > 100 µM (inactive) | > 100 µM (inactive) | > 100 µM (inactive) | > 100 µM (inactive) | > 100 µM (inactive) | > 100 µM (inactive) | > 100 µM (inactive) | > 100 µM (inactive)
N#Cc1ccccc1NC(=O)C(=O)c1c(O)c2ccccc2oc1=O | > 100 µM (inactive) | > 100 µM (inactive) | > 100 µM (inactive) | > 100 µM (inactive) | > 100 µM | > 100 µM (inactive) | > 100 µM (inactive) | > 100 µM (inactive) | > 100 µM (inactive) | > 100 µM (inactive) | > 100 µM (inactive) | > 100 µM (inactive) | > 100 µM (inactive) | > 100 µM (inactive) | > 100 µM (inactive) | > 100 µM (inactive) | > 100 µM (inactive) | > 100 µM (inactive) | > 100 µM (inactive) | > 100 µM (inactive)
CC(C)C[P+](c1ccccc1)(c1ccccc1)c1ccccc1 | 32.1 µM (inactive) | 20.2 µM (inactive) | 10.5 µM (inactive) | 8.57 µM (inactive) | 64.3 µM | 3.64 µM (inactive) | 8.79 µM (inactive) | 7.4 µM (inactive) | 3.97 µM (inactive) | > 100 µM (inactive) | 12.1 µM (inactive) | 73.6 µM (inactive) | 10.3 µM (inactive) | 14.8 µM (inactive) | 22.6 µM (inactive) | 19.8 µM (inactive) | 9.35 µM (inactive) | 13.1 µM (inactive) | 7.08 µM (inactive) | 3.85 µM (inactive)
